In publication PMC4929710, “Specificity and mechanism of action of alpha-helical membrane-active peptides interacting with model and biological membranes by single-molecule force spectroscopy” (Scientific Reports, 2016):

Test system: human red blood cells (hRBCs)
Assay: Hemolytic activity assay (MHC)
Assay type: cell-based
Details: 1% final hRBCs in PBS (70 μL of 2% + 70 μL peptide), 37 °C, 2 h, absorbance 578 nm
Protocol: Peptide samples were serially diluted with phosphate-buffered saline (PBS) and added to 96-well plates (round bottom) with 70 μL per well. Healthy human red blood cells (hRBCs) were collected using an anticoagulation tube with EDTAK2 and centrifuged at 1,000 rpm for 5 min. The erythrocytes were washed three times, resuspended in PBS, and then diluted to a concentration of 2% in PBS. A total of 70 μL of 2% erythrocytes was added to each well and incubated at 37 °C for 2 h. The plates were centrifuged for 10 min at 3,000 rpm and the supernatant was transferred to a 96-well plate (flat bottom). The release of hemoglobin was determined by measuring the absorbance of the supernatant at 578 nm. The hemolytic activity was determined as the minimal peptide concentration that caused hemolysis [minimal hemolytic concentration (MHC)]. Erythrocytes in PBS and distilled water were used as the control of 0% and 100% hemolysis, respectively.

**Q.** `CC[C@H](C)[C@H](NC(=O)[C@H](C)NC(=O)[C@H](CCCCN)NC(=O)[C@H](CC(C)C)NC(=O)[C@H](C)NC(=O)[C@@H](NC(=O)[C@H](Cc1cnc[nH]1)NC(=O)[C@H](CC(C)C)NC(=O)[C@@H](NC(=O)[C@@H](NC(=O)[C@H](CCCCN)NC(=O)[C@H](CCCCN)NC(=O)[C@H](C)NC(=O)[C@H](CO)NC(=O)[C@H](CCCCN)NC(=O)[C@H](Cc1ccccc1)NC(=O)[C@@H](NC(=O)[C@H](CCCCN)NC(=O)[C@H](CC(C)C)NC(=O)[C@H](Cc1ccccc1)NC(=O)[C@H](CO)NC(=O)[C@H](CCCCN)NC(=O)[C@H](Cc1c[nH]c2ccccc12)NC(=O)[C@H](CCCCN)NC(C)=O)[C@@H](C)O)[C@@H](C)O)C(C)C)[C@@H](C)O)C(=O)N[C@@H](CO)C(=O)N[C@@H](CO)C(N)=O` [Peptide V13K] was tested. Which “MHC (minimal hemolytic concentration)” value did it give?
**A.** The value was 250 µM.
